This note sets out measurements from patent EP4356928A1, “NUCLEOSIDE DIPHOSPHATE OR DIPHOSPHONATE PRODRUGS, OR NUCLEOSIDE ANALOGUE DIPHOSPHATE OR DIPHOSPHONATE PRODRUGS” (Universität Hamburg, priority 2022, dated 2024).

One may read the CC50 as the concentration at which the toxic effect on the cells reaches its halfway point. Lower therefore signals harm at low concentration.

Structures are written as SMILES.

For the first data set, the system named is CD4^+ T-cell (CEM). Kind of data set: Cytotoxicity: inhibition of CD4+ T-cell (CEM) proliferation. The note with it: ratio between cell toxicity (CC50) and EC50 CEM/TK-. As for the experimental part: (§1) In addition, a selectivity index (SI) was determined. The selectivity index is the ratio between cell toxicity and […], the ratio between cell toxicity (see Table 4) and EC50 CEM/TK^- (see right column of Table 3).
(§2) Table 4: Cytotoxicity (CC50 [µM]) and selectivity index (SI) of tested prodrug compounds.
For the molecule `CCCCCCCCCCCCCCCCCCP(=O)(OCCCC)OP(=O)(O)OC[C@H]1O[C@@H](n2cc(C)c(=O)[nH]c2=O)C[C@@H]1F` (stereo partly shown) [No 22], the “Selectivity index (SI)” value worked out at 3620.

Consider `CCCCCCCCCCCCCCCCCCOP(=O)(OCCCC)OP(=O)(O)OC[C@H]1O[C@@H](n2ccc(=O)[nH]c2=O)C[C@@H]1F` (stereo partly shown) [No 23], for which the “Selectivity index (SI)” value was 213.

For the molecule `CCCCCCCCCCCCCCCCCCP(=O)(OCCCC)OP(=O)(O)OC[C@H]1O[C@@H](n2ccc(=O)[nH]c2=O)C[C@@H]1F` (stereo partly shown) [No 24], the “Selectivity index (SI)” value stood at 1159.

Regarding `CCCCCCCCCCCCCCCCCCOP(=O)(OCCCC)OP(=O)(O)OC[C@@H]1C=C[C@H](n2cnc3c(NC4CC4)nc(N)nc32)C1` (stereo partly shown) [No 25], the “Selectivity index (SI)” value is given as 3387.

Test system in the next data set: not listed separately
The description is as above. As to conditions: human, cem cells. As for the experimental part: as §1, §2
Take `CCCCCCCCCCCCCCCCCCP(=O)(OCCCC)OP(=O)(O)OC[C@H]1O[C@@H](n2cc(C)c(=O)[nH]c2=O)C[C@@H]1F` (stereo partly shown) [No 22]: it took 54.3 ± 15.2 µM to reach half-maximal cytotoxicity (CC50).

On to `CCCCCCCCCCCCCCCCCCOP(=O)(OCCCC)OP(=O)(O)OC[C@H]1O[C@@H](n2ccc(=O)[nH]c2=O)C[C@@H]1F` (stereo partly shown) [No 23], for which it took 44.8 µM to reach half-maximal cytotoxicity (CC50).

With `CCCCCCCCCCCCCCCCCCP(=O)(OCCCC)OP(=O)(O)OC[C@H]1O[C@@H](n2ccc(=O)[nH]c2=O)C[C@@H]1F` (stereo partly shown) [No 24], the CC50 stood at 59.1 ± 20.8 µM.

In turn, `CCCCCCCCCCCCCCCCCCOP(=O)(OCCCC)OP(=O)(O)OC[C@@H]1C=C[C@H](n2cnc3c(NC4CC4)nc(N)nc32)C1` (stereo partly shown) [No 25] yielded a CC50 of 10.5 ± 4.6 µM.

Test system in the next data set: not listed separately
The data set can be described thus: Stability (hydrolysis half-life) in CEM/0 cell extracts, RP-18 HPLC. The note with it: human, read-out: Half-lives CEM T cell extracts (converted). It is filed as in vitro ADME. As for the experimental part: (§3) Stability tests regarding a number of differently substituted β-phosphate and β-phosphonate nucleoside prodrugs were conducted. The chemical and biological stability was tested in different media (phosphate-buffered saline PBS (pH 7.3), pig liver esterase (PLE), CEM cell extracts) and rated by determining the half-live of these compounds. The products of the respective hydrolysis were detected by analytical RP-18 HPLC.
(§4) Results of the hydrolysis experiments in different media (PBS (pH = 7.3), PLE (pig liver esterase) in PBS, or CEM-T cell extracts) are shown in Table 2.
(§5) Table 2: Half-lives (in hours) of the β-phosph(on)ate prodrug compounds of the invention in phosphate buffer saline (PBS, pH 7.3), PLE (100 units/mL pig liver esterase in PBS) and CEM/0 cell extracts. n.d. = not determined.
With `CCCCCCCCCCCCCCCCCCP(=O)(OCCCC)OP(=O)(O)OC[C@H]1O[C@@H](n2ccc(=O)[nH]c2=O)C[C@@H]1F` (stereo partly shown) [No 24], the half-life is over 20 h.

`CCCCCCCCCCCCCCCCCCOP(=O)(OCCCC)OP(=O)(O)OC[C@@H]1C=C[C@H](n2cnc3c(NC4CC4)nc(N)nc32)C1` (stereo partly shown) [No 25]: the half-life was 6.7 h.

Another data set deals with HIV-2 (ROD). Kind of data set: Inhibition of HIV-2 replication in thymidine kinase-deficient CEM/TK- cell cultures. Type of data set: cell-based. As to conditions: Human immunodeficiency virus 2, CEM-TK(-), read-out: Antiviral activity EC50 CEM/TK^- HIV-2 (ROD). As for the experimental part: (§6) All β-phosph(on)ate prodrug compounds were evaluated for their activity to inhibit the replication of HIV in HIV-1- and HIV-2-infected wild-type (CEM/0) cell cultures and in HIV-2-infected mutant thymidine kinase-deficient (CEM/TK^-) cell cultures (see Table 3).
(§7) Antiviral activity was determined in CD4^+ T-lymphocytes: 50% effective concentration (EC50 [µM]).
On to `CCCCCCCCCCCCCCCCCCP(=O)(OCCCC)OP(=O)(O)OC[C@H]1O[C@@H](n2cc(C)c(=O)[nH]c2=O)C[C@@H]1F` (stereo partly shown) [No 22], for which the EC50 is 0.015 ± 0.004 µM.

Regarding `CCCCCCCCCCCCCCCCCCOP(=O)(OCCCC)OP(=O)(O)OC[C@H]1O[C@@H](n2ccc(=O)[nH]c2=O)C[C@@H]1F` (stereo partly shown) [No 23], the EC50 stood at 0.21 ± 0.1 µM.

For `CCCCCCCCCCCCCCCCCCP(=O)(OCCCC)OP(=O)(O)OC[C@H]1O[C@@H](n2ccc(=O)[nH]c2=O)C[C@@H]1F` (stereo partly shown) [No 24], the EC50 came out at 0.051 ± 0.069 µM.

For `CCCCCCCCCCCCCCCCCCOP(=O)(OCCCC)OP(=O)(O)OC[C@@H]1C=C[C@H](n2cnc3c(NC4CC4)nc(N)nc32)C1` (stereo partly shown) [No 25], the EC50 turned out to be 0.0031 ± 0.0027 µM.

A further data set relates to HIV-2 (ROD). Kind of data set: Inhibition of HIV-2 replication in wild-type CEM/0 cell cultures. It is filed as cell-based. As to conditions: Human immunodeficiency virus 2, CCRF-CEM, read-out: Antiviral activity EC50 HIV-2 (ROD). As for the experimental part: as §6, §7
In the case of `CCCCCCCCCCCCCCCCCCP(=O)(OCCCC)OP(=O)(O)OC[C@H]1O[C@@H](n2cc(C)c(=O)[nH]c2=O)C[C@@H]1F` (stereo partly shown) [No 22], the EC50 was found to be 0.042 ± 0.013 µM.

Consider `CCCCCCCCCCCCCCCCCCOP(=O)(OCCCC)OP(=O)(O)OC[C@H]1O[C@@H](n2ccc(=O)[nH]c2=O)C[C@@H]1F` (stereo partly shown) [No 23], for which the EC50 came out at 0.15 ± 0.02 µM.

For `CCCCCCCCCCCCCCCCCCP(=O)(OCCCC)OP(=O)(O)OC[C@H]1O[C@@H](n2ccc(=O)[nH]c2=O)C[C@@H]1F` (stereo partly shown) [No 24], the EC50 was determined as 0.076 ± 0.077 µM.

Regarding `CCCCCCCCCCCCCCCCCCOP(=O)(OCCCC)OP(=O)(O)OC[C@@H]1C=C[C@H](n2cnc3c(NC4CC4)nc(N)nc32)C1` (stereo partly shown) [No 25], the EC50 came to 0.0087 ± 0.0004 µM.

The next data set has as its system HIV-1 (HE). Kind of data set: Inhibition of HIV-1 replication in wild-type CEM/0 cell cultures. Type of data set: cell-based. As to conditions: Human immunodeficiency virus 1, CCRF-CEM, read-out: Antiviral activity EC50 HIV-1 (HE). As for the experimental part: as §6, §7
Turning to `CCCCCCCCCCCCCCCCCCP(=O)(OCCCC)OP(=O)(O)OC[C@H]1O[C@@H](n2cc(C)c(=O)[nH]c2=O)C[C@@H]1F` (stereo partly shown) [No 22], the EC50 turned out to be 0.0063 ± 0.0046 µM.

`CCCCCCCCCCCCCCCCCCOP(=O)(OCCCC)OP(=O)(O)OC[C@H]1O[C@@H](n2ccc(=O)[nH]c2=O)C[C@@H]1F` (stereo partly shown) [No 23]: the EC50 is 0.14 ± 0.071 µM.

As for `CCCCCCCCCCCCCCCCCCP(=O)(OCCCC)OP(=O)(O)OC[C@H]1O[C@@H](n2ccc(=O)[nH]c2=O)C[C@@H]1F` (stereo partly shown) [No 24], the EC50 came out at 0.057 ± 0.009 µM.

Consider `CCCCCCCCCCCCCCCCCCOP(=O)(OCCCC)OP(=O)(O)OC[C@@H]1C=C[C@H](n2cnc3c(NC4CC4)nc(N)nc32)C1` (stereo partly shown) [No 25], for which the EC50 was 0.016 ± 0.004 µM.

Test system in a further data set: not listed separately
The data set can be described thus: Stability (hydrolysis half-life) against pig liver esterase in PBS, RP-18 HPLC. Type of data set: in vitro ADME. As to conditions: pH 7.3; 100 units/mL pig liver esterase in PBS; read-out: Half-lives PLE (converted). As for the experimental part:
as §3, §4, §5
As to `CCCCCCCCCCCCCCCCCCP(=O)(OCCCC)OP(=O)(O)OC[C@H]1O[C@@H](n2ccc(=O)[nH]c2=O)C[C@@H]1F` (stereo partly shown) [No 24], the half-life was over 150 h.

On to `CCCCCCCCCCCCCCCCCCOP(=O)(OCCCC)OP(=O)(O)OC[C@@H]1C=C[C@H](n2cnc3c(NC4CC4)nc(N)nc32)C1` (stereo partly shown) [No 25], for which the half-life was 41 h.

Test system in another data set: not listed separately
Kind of data set: Chemical stability (hydrolysis half-life) in phosphate-buffered saline, RP-18 HPLC. Type of data set: physicochemical. The note with it: phosphate buffer saline (PBS, pH 7.3); read-out: Half-lives PBS (converted). As for the experimental part: as §3, §4, §5
As for `CCCCCCCCCCCCCCCCCCP(=O)(OCCCC)OP(=O)(O)OC[C@H]1O[C@@H](n2cc(C)c(=O)[nH]c2=O)C[C@@H]1F` (stereo partly shown) [No 22], the half-life is over 83.3 days.

For the molecule `CCCCCCCCCCCCCCCCCCOP(=O)(OCCCC)OP(=O)(O)OC[C@H]1O[C@@H](n2ccc(=O)[nH]c2=O)C[C@@H]1F` (stereo partly shown) [No 23], the half-life was 33.2 days.

For `CCCCCCCCCCCCCCCCCCP(=O)(OCCCC)OP(=O)(O)OC[C@H]1O[C@@H](n2ccc(=O)[nH]c2=O)C[C@@H]1F` (stereo partly shown) [No 24], the half-life was over 83.3 days.

As to `CCCCCCCCCCCCCCCCCCOP(=O)(OCCCC)OP(=O)(O)OC[C@@H]1C=C[C@H](n2cnc3c(NC4CC4)nc(N)nc32)C1` (stereo partly shown) [No 25], the half-life is 2.33 days.
